Measured values taken from patent publication US20240252508A1, “Novel glucose uptake inhibitors for use in the treatment of cancer” (NOVELYEAST BV, priority 2021, published 2024).

Key:
tps1Δ cells = assay: Growth rescue of tps1Δ strain on glucose (growth curves, 2% galactose medium); format: cell-based, S. cerevisiae; settings: 100 μM compound, 2.5 mM glucose
Protocol: Growth curves were made by measuring OD595 in a 96-well plate using the Multiskan™ FC Microplate Photometer (Thermo Fisher Scientific). Typically, for tps1Δ rescue experiments (FIG. 2b-e; FIG. 4a), cells were (pre)grown in Complete Synthetic medium containing 2% galactose.
Compounds were always added 10 min prior to glucose addition to ensure maximal interaction between the cells and compounds. Cells originating from the preculture were harvested, washed in medium without sugar, after which they were resuspended to an OD of 0.1 in 200 μL of the appropriate medium. At least three technical replicates were included per condition. OD595 was measured at 30° C. every 30 min with a 10-min shaking interval.

[1] = tested on: A549 lung adenocarcinoma cells; assay: A549 cell proliferation / growth inhibition; format: cell-based, human; settings: for Selected from primary screen for growth inhibition of A549 cells at 50 μM: 50 μM compound, 1 mM glucose; for Selected for having an IC50 ratio (10 mM glucose: 1 mM glucose) of A549 growth higher than WBC-A: IC50 on 10 mM vs 1 mM glucose, compared with WBC-A
Protocol: The analog library (n=203) was screened for inhibition of growth of A549 cells on RPMI medium supplemented with 1 mM glucose. DMSO (green bar) and WBC-A (orange bar) served as negative and positive control, respectively. In addition, the reference glucose transport inhibitors STF-31, Fasentin, BAY-876, WZB-117 and Cytochalasin B were included and indicated in red. Compounds were added at 50 μM concentration. Number of cells was determined by counting nuclei stained by Hoechst after three days of growth.
For both adherent A549 and MCF10Δ H-RAS^V12 cell lines, growth curves were established using the IncuCyte® ZOOM technology. By collecting phase contrast images, the IncuCyte® software provides a calculated confluency percentage from which growth curves can be deducted.
Cells were seeded at a density of 1000-1500 cells/well in a Nunc-Edge™ 96-well plate (Thermo Fisher Scientific) and growth was typically measured over 3 to 5 days. For the measurement of apoptosis induction using the MCF10Δ H-RAS^V12 cell line, the IncuCyte® Caspase-3/7 green dye was added to the medium in the recommended concentration at the beginning of the growth curve experiment. Apoptosis was detected by taking fluorescent images by excitation at 488 nm followed by IncuCyte® software analysis. Cell growth of the KMS-12-PE multiple myeloma cell line, which grows in suspension, was measured by manual cell counting. Cells were initially seeded at a density of 10^4 cells/well and incubated for 4 days after which the cell number was counted. For all cell lines, the same medium used for pregrowth was also used for the growth curve experiment, albeit with different glucose concentrations depending on the experimental design. With compound administration, the final concentration of DMSO never exceeded 0.1%. Typically, at least four technical repeats were included per condition.

Row | Structure (SMILES) | Rescue of the tps1Δ strain on 2.5 mM glucose at 100 μM (tps1Δ cells) | Selected from primary screen for growth inhibition of A549 cells at 50 μM [1] | Selected for having an IC50 ratio (10 mM glucose: 1 mM glucose) of A549 growth higher than WBC-A [1]
1 | CCCN(CC1CC1)C(=O)CSc1nc(C)nc2scc(-c3cccs3)c12 [9B] | No | No | 
2 | CC(C)Sc1nc(SCCN2CCOCC2)c2c3c(sc2n1)COC(C)(C)C3 [80C] | No | No | 
3 | Cc1nc(SCC(=O)N2CCC(C)Sc3ccccc32)c2c(-c3cccs3)csc2n1 (stereo not shown) [43B] | No | No | 
4 | CC1CN(C(=O)CSc2ncnc3scc(-c4ccc(F)cc4)c23)CCO1 (stereo not shown) [37C] | No | No | 
5 | COc1ccc(-c2csc3ncnc(Sc4nnc(-c5cccc(C)c5)n4CC(N)=O)c23)cc1 [21A] | No | Yes | Lower IC50 ratio
6 | Cc1nc(Sc2nnnn2C)c2c(-c3cccs3)csc2n1 [39A] | No | Yes | Lower IC50 ratio
7 | CCCn1c(Sc2nc(C)nc3scc(-c4cccs4)c23)nnc1-c1ccncc1 [34C] | No | Yes | Lower IC50 ratio
8 | CCOC(=O)c1sc2nc(C)nc(SCC(N)=O)c2c1C [59C] | No | No | 
9 | COc1ccccc1NC(=O)CSc1ncnc2scc(-c3ccccc3)c12 [11B] | No | No | 
10 | Cc1nc(N2CCN(CCO)CC2)c2c(-c3cccs3)csc2n1 [25B] | No | No | 
11 | Cc1nc(Sc2nnc(NC3CC3)s2)c2c(-c3cccs3)csc2n1 [66C] | No | No | 
12 | CCCN(CC(=O)N(C)C)c1nc(C)nc2scc(-c3cccs3)c12 [46B] | No | Yes | Lower IC50 ratio
13 | Cc1nc(S)c2c(-c3cccs3)csc2n1 [67A] | No | No | 
14 | Cc1nc(N2CCC3(CC2)OCCO3)c2c(-c3cccs3)csc2n1 [47B] | No | Yes | Lower IC50 ratio
15 | COCCNC(=O)CN(C)c1nc(C)nc2scc(-c3cccs3)c12 [23B] | No | Yes | Lower IC50 ratio
16 | Cc1nc(SCC(=O)NC(=O)NCc2ccco2)c2cc(-c3ccccc3)sc2n1 [40B] | No | Yes | Lower IC50 ratio
17 | c1cnc(Sc2nc(CN3CCOCC3)nc3scc(-c4cccs4)c23)nc1 [1C] | No | Yes | Lower IC50 ratio
18 | c1ccc(-c2cc3c(N4CCCC4c4nnc5n4CCCCC5)ncnc3s2)cc1 (stereo not shown) [22A] | No | No | 
19 | Cc1nc(NCC(=O)Nc2c(C)cccc2C)c2c(-c3cccs3)csc2n1 [29C] | No | No | 
20 | Cc1nc(NCC(=O)NCc2ccco2)c2c(-c3ccccc3)csc2n1 [4C] | No | Yes | Higher IC50 ratio and confirmed

Row | Structure (SMILES) | Rescue of the tps1Δ strain on 2.5 mM glucose at 100 μM (tps1Δ cells) | Selected from primary screen for growth inhibition of A549 cells at 50 μM [1] | Selected for having an IC50 ratio (10 mM glucose: 1 mM glucose) of A549 growth higher than WBC-A [1]
21 | COc1ccccc1-n1ncc2c(C)nnc(SCC(=O)N3CCOCC3)c21 [77C] | No | No | 
22 | Cc1nc(SC(C)C(=O)NC(C)C)c2c(-c3cccs3)csc2n1 (stereo not shown) [33B] | No | Yes | Lower IC50 ratio
23 | Cc1nc(SCC(=O)N2CC(C)OC(C)C2)c2c(C)c(C)sc2n1 (stereo not shown) [7C] | No | Yes | Higher IC50 ratio, but false-positive
24 | Cc1sc2nc(-c3cccs3)nc(Sc3nnc(C)n3C)c2c1C [16A] | No | No | 
25 | COCCSc1nnc(C)c2cnn(-c3ccccc3)c12 [69C] | No | No | 
26 | Cc1nc(NCCN2CCOCC2)c2c(-c3ccccc3)csc2n1 [85C] | No | Yes | Higher IC50 ratio, but false-positive
27 | CC(Sc1nnc2n1CCCCC2)c1nc2scc(-c3cccs3)c2c(=O)[nH]1 (stereo not shown) [6A] | No | No | 
28 | CCn1c(CN)nnc1Sc1nc(-c2ccccc2)nc2scc(-c3ccccc3)c12 [37A] | No | No | 
29 | Cc1nc(SCC(=O)N(Cc2ccccc2)Cc2ccccc2)c2c(-c3cccs3)csc2n1 [22B] | No | No | 
30 | Cc1nc(SCC(=O)Nc2ccccc2-c2ccccc2)c2c(-c3cccs3)csc2n1 [13B] | No | Yes | Higher IC50 ratio, but false-positive
31 | c1ccc(Cn2c(CN3CCCC3)nnc2Sc2ncnc3scc(-c4ccccc4)c23)cc1 [27A] | No | Yes | Lower IC50 ratio
32 | Cc1nc(Sc2nnc(-c3ccoc3C)n2C)c2c(-c3cccs3)csc2n1 [63C] | No | No | 
33 | Cc1nc(N2CCCC(c3nncn3C)C2)c2c(-c3cccs3)csc2n1 (stereo not shown) [38A] | No | No | 
34 | Cc1nc(SCC(N)=O)c2c3c(sc2n1)CCC3 [49C] | No | No | 
35 | Cc1nc(Sc2nnc3ccccn23)c2c(-c3cccs3)csc2n1 [30A] | No | No | 
36 | Cc1nc(SCC(=O)Nc2cc(C)on2)c2c(-c3cccs3)csc2n1 [10C] | Yes | Yes | Lower IC50 ratio
37 | Cc1sc2nc(CN3CCC(C)CC3)nc(Sc3nnc(C4CC4)n3CCC(N)=O)c2c1C [17A] | No | Yes | Lower IC50 ratio
38 | Cc1nc(Sc2nnnn2C2CC2)c2c(-c3ccccc3)csc2n1 [56A] | No | Yes | Lower IC50 ratio
39 | COC(=O)CSc1nc(CN2CCOCC2)nc2scc(-c3cccs3)c12 [37B] | No | No | 
40 | Cc1nc(SCC(=O)N2CC(C)OC(C)C2)c2c(-c3cccs3)csc2n1 (stereo not shown) [5B] | Yes | No | 
